Data set [1] is described as follows: NIH3T3 cell viability loss – ATP luminescence, mouse fibroblasts, counter-screen, dose response (AID 2010).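 Further: cells exposed to compound for about 90 hours before reading.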 It is filed as functional, cell-based. Background: A counterscreen serves to expose hits that act by an unwanted route or on another target.
A short description of data set [2]: Trypanosoma cruzi growth suppression in host cells – NIH3T3 host cells, beta-gal luminescence, confirmation (AID 2044).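 Further: intracellular parasites grown in NIH/3T3 mouse fibroblasts as host cells; luminescent beta-galactosidase reporter signal from transgenic T. cruzi replicating inside host cells; inhibitors lower the luminescence signal.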 It counts as functional, cell-based.
Data set [3] can be described thus: Luminescence Cell-Based Dose Retest to Confirm Inhibitors of Cancer Stem Cells. [Related pubchem assays (depositor defined):AID2717, AID2721]. Particulars: Homo sapiens. It is filed as functional.
The target of data set [4] is Cytochrome P450 3A4 (Homo sapiens, UniProt P08684).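 Further: CYP3A4 tested as one member of a cytochrome P450 panel screen.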
Data set [5] concerns the target Cytochrome P450 2C19 (Homo sapiens, UniProt P33261). The experiment in a line: Cytochrome panel assay with activity outcomes. Panel member name: p450-cyp2c19 Compounds with AC50 equal or less than 10 uM are considered active. It is filed as functional.
The subject of data set [6] is Streptococcus sp. 'group A'. Kind of data set: Streptococcus pyogenes SK(-)GAS viability under kanamycin – luminescence, BacTiterGlo, confirmation, counter-screen for streptokinase expression inhibitor project, dose response (AID 1900). It counts as functional, organism-based.
For data set [7], the system named is Streptococcus. Kind of data set: GAS UMAA2166 growth inhibition – luminescence, BacTiterGlo, counter-screen for streptokinase expression inhibitor project, dose response (AID 1915).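 Further: potency for reduction of bacterial viability or growth.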 It is filed as functional, organism-based.
Data set [8] has as its target T1, Rac GTPase-activating protein 1 (Homo sapiens, UniProt Q9H0H5).
T1 sequence (Q9H0H5 whole entry): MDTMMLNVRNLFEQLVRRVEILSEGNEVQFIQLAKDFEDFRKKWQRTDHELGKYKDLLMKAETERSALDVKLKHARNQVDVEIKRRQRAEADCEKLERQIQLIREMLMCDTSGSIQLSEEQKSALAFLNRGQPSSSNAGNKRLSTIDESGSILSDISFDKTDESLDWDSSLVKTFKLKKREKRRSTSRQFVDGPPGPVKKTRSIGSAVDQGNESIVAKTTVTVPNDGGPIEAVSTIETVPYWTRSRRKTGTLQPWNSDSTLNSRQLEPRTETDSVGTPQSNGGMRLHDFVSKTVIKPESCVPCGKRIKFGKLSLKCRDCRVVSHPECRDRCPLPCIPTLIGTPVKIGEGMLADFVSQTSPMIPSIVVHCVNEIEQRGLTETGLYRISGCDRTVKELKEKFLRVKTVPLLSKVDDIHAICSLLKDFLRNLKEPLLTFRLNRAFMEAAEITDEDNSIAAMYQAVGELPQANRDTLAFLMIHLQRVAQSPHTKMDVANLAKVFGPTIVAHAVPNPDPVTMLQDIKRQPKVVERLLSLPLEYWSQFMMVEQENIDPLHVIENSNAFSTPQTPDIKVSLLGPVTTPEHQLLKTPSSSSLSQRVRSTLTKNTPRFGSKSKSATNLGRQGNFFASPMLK
Kind of data set: blockers of MgcRacGAP-driven Rac1 GTP hydrolysis – biochemical, ADP Hunter fluorescence, primary and confirmatory, confirmation (AID 624330). It counts as functional.

In data set [9] the test system is H4. Kind of data set: Luminescence Cell-Based Dose Response HTS to Identify Activators of 5'UTR Stem-Loop Driven Prion Protein mRNA Translation in H4 Neuroglioblastoma Cells. [Related pubchem assays: 1829 (Project Summary), 1814 (Primary HTS)]. It counts as functional. Particulars: Homo sapiens.
The target in data set [10] is T2, Protein RecA (Mycobacterium tuberculosis, UniProt P9WHJ3).
T2 sequence (P9WHJ3 whole entry): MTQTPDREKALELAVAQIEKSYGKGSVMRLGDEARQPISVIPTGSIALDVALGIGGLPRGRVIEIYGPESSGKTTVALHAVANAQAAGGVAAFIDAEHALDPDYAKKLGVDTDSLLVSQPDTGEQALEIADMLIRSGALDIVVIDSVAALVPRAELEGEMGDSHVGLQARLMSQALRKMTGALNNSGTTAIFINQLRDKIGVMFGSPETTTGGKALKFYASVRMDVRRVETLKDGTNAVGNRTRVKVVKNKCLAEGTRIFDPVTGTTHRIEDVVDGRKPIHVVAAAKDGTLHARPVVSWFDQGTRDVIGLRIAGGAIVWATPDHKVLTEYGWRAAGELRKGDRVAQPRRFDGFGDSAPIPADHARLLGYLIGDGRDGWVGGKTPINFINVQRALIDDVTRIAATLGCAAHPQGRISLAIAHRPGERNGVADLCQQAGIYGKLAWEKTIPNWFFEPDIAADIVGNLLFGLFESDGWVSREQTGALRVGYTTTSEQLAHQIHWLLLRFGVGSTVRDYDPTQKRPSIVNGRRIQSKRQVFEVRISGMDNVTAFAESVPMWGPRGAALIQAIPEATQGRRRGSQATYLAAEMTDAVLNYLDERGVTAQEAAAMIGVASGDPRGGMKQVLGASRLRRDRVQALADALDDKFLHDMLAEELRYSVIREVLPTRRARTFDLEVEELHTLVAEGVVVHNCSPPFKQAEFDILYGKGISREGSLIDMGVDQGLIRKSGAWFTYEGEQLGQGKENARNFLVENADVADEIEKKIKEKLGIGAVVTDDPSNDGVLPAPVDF
The experiment in a line: Fluorescence Cell-Free Homogeneous Dose Retest to Identify Inhibitors of RecA-Intein Splicing Activity. [Related pubchem assays (depositor defined):AID2097, AID2223, AID489010, AID492950]. It is filed as functional.

Activity calls are given as the source filed them. A value given as a limit tells only on which side of the number the result lay.

Chain of Cytochrome P450 2C19 (P33261 whole entry): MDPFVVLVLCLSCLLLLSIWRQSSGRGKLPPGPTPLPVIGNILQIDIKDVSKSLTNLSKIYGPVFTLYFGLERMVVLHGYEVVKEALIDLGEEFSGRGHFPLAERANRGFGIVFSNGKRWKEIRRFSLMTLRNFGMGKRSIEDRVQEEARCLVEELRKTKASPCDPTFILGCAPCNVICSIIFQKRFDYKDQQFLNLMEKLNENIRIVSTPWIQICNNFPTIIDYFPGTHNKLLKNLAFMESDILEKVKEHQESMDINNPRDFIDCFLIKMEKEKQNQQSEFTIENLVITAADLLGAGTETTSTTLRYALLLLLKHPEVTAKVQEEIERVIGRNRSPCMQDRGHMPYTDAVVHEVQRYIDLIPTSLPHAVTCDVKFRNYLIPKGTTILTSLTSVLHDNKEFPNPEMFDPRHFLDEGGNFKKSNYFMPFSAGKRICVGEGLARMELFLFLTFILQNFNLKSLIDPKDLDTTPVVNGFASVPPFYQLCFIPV
Chain of Cytochrome P450 3A4 (P08684 whole entry): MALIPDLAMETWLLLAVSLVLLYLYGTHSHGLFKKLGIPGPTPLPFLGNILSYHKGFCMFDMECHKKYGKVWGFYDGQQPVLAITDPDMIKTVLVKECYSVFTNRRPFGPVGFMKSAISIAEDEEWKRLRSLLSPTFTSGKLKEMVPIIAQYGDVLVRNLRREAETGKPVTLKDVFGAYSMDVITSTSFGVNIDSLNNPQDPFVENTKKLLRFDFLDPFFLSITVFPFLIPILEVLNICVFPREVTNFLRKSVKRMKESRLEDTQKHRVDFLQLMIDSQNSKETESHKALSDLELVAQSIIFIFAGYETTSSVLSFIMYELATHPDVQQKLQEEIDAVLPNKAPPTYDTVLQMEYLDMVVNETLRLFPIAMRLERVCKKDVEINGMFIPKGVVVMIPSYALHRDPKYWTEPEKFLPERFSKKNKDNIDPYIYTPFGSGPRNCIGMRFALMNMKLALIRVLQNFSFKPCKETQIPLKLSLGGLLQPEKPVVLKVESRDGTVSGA

In general, EC50 refers to the concentration giving half of the maximal effect. In the case of `COc1ccc(CCNC(=O)CN(c2ccccc2OC)S(=O)(=O)c2ccc(C)cc2)cc1`, the EC50 in data set [1] was 19.3 µM (active); in [2], 4.73 µM (active). What is called AC50 is the concentration at which the activity in the assay is half-maximal. As for `CC(C)c1ccc(/C=C/C(=O)NC2=NCCS2)cc1`, the AC50 in data set [3] was 1.99 µM (active).

In the case of `C=CCN1C(=O)C(CC(=O)Nc2ccc(OCCC)cc2)N(CCCN2CCN(Cc3ccccc3)CC2)C1=S` (stereo not drawn), the EC50 in data set [1] is > 60 µM (not active); in data set [2] it was 3.01 µM (active). `CC(=O)NCCNc1ccnc(-c2ccccc2C)n1`: the AC50 in data set [4] is 20 µM (inconclusive). Consider `O=C(CN1CCN(S(=O)(=O)c2ccc(Br)cc2)CC1)Nc1ccccc1C(=O)c1ccccc1`, for which the EC50 in data set [1] is > 60 µM (not active); in data set [2], 1.08 µM (active).

For the compound `O=C(CN(Cc1ccccc1Cl)C(=O)c1ccc(CN2CCOCC2)o1)NCC1CCCO1` (stereo not drawn), in data set [5] (read-out: AC50), the AC50 was 10 µM (inconclusive). Regarding `O=C(NC1CONC1=O)OCC(Cl)(Cl)Cl` (stereo not drawn), in data set [3], the AC50 is > 195 µM (inactive). For the compound `CCn1cc(C(=O)O)c(=O)c2cc(F)c(N3CCN(S(=O)(=O)c4ccc(NC(C)=O)cc4)CC3)cc21`, the EC50 in data set [6] was 5.05 µM (active); in data set [7], 7.08 µM (active). On to `Oc1ccccc1/C=N/NP(=S)(c1ccccc1)c1ccccc1`, for which the AC50 in [3] is 2.69 µM (active). On to `COc1ccccc1CN1CCCC2(CCN(C(=O)c3csnn3)CC2)C1`, for which the half-maximal activity concentration (AC50) in data set [4] was 15.8 µM (inconclusive). Consider `COCCCN=C(S)NC1CC2CCCC(C1)N2Cc1cccs1` (stereo not drawn), for which the AC50 in data set [5] (read-out: AC50) was 1.26 µM (inconclusive). Broadly, the IC50 is the concentration that gives 50% inhibition. Regarding `c1ccc(OCCCN2CCCC2)cc1`, in data set [8], the IC50 is 159 µM (active).

For `O=C(c1cc(-c2ccncc2)nc2ccc(Br)cc12)N1CCN(Cc2ccc3c(c2)OCO3)CC1`, the concentration giving a half-maximal response (EC50) is 54.9 µM (active) in [1] and 0.384 µM (active) in data set [2].

As to `CC[C@@H]1OC(=O)[C@H](C)[C@H](O[C@@H]2C[C@](C)(OC)[C@H](O)[C@H](C)O2)[C@H](C)[C@H](O[C@@H]2O[C@@H](C)C[C@@H](N(C)C)[C@@H]2O)[C@](C)(O)C[C@H](C)C(=O)[C@H](C)[C@H](O)[C@]1(C)O`, the AC50 in data set [4] was 12.6 µM (inconclusive). For `COc1ccccc1N=C(S)NNC(=O)c1c(Cl)c(C)nn1C`, the concentration at half-maximal activity (AC50) entry in data set [5] is “inconclusive”.

Turning to `Cc1cccc(NC(=O)Nc2ccc3c(c2)OCO3)n1`, the EC50 in data set [9] is 9.72 µM (active).

As to `C=C1C/C(=C\C)C(=O)O[C@@H]2CCN3CC=C(COC(=O)[C@@]1(C)O)[C@H]23`, the AC50 result is “inconclusive” in [5] and 12.6 µM (inconclusive) in data set [4]. With `O=C(Nc1ccccc1)c1ccc(N2CCN(c3ccccc3)CC2)c(S(=O)(=O)N2CCOCC2)c1`, the EC50 in data set [1] was > 60 µM (not active); in data set [2], 2.04 µM (active). For the compound `COc1cc(CNC(C)c2ccccc2)cc(Br)c1OCc1ccccc1` (stereo not drawn), in data set [3], the AC50 was 5.92 µM (active). As for `Cc1cccc(-c2nc(C#N)c(NC3CCCCC3)o2)c1`, the AC50 in data set [3] was 2.45 µM (active). Turning to `COc1cccc(Nc2ncc3nc(-c4cc(F)cc(F)c4)c(=O)n(C[C@H]4CCCO4)c3n2)c1`, the AC50 in data set [4] is 6.31 µM (inconclusive). As for `O=C(O)c1ccccc1C(=O)Nc1ccc(Nc2ccccc2)cc1`, the IC50 in data set [8] was 55.5 µM (active). As for `CCOc1ccc2c(c1)-c1c(ssc1=S)C(C)(C)N2`, in [10], the EC50 was 3.17 µM (active). With `O=C(CNCCO)N1CCc2ccccc21`, the AC50 in [4] was 1.41 µM (inconclusive). For `CO[C@@]12C[C@@H](COC(=O)c3cncc(Br)c3)CN(C)[C@H]1Cc1cn(C)c3cccc2c13`, the AC50 in data set [5] (read-out: AC50) is 7.94 µM (inconclusive). `Cc1c(-c2ccccc2)sc(N)c1C(=O)N1CCOCC1`: in data set [8], the IC50 is 41.5 µM (active). In the case of `Nc1ccc2[nH]cc(CCC(=O)O)c2c1`, in data set [5], the AC50 entry was “inconclusive”. As to `Sc1nnc2sc3ccccc3n12`, the IC50 in [8] is 35.8 µM (active). For the compound `COc1ccc(/C=C2\SC(=S)N(CCC(=O)N(CCO)Cc3ccccc3)C2=O)cc1OC`, the values for the EC50 in data set [1] and in [2] were > 60 µM (not active) and 3.32 µM (active), respectively. As to `COc1cc(N=Nc2ccc(C)cc2S(N)(=O)=O)c(C)cc1N`, the IC50 in data set [8] is 76.2 µM (active). Consider `CCCCc1ccc(NC(=O)CSc2nc(=O)n(CCN(CC)CC)c3c2CCC3)cc1`, for which the AC50 in data set [3] is 11.2 µM (active). Consider `CCCn1c(C)cc(C(=O)COc2ncnc3sccc23)c1C`, for which the EC50 in data set [9] is > 120 µM (not active). On to `N#CC1=C(Nc2ccccc2Cl)SC(c2ccccc2O)NC1=O` (stereo not drawn), for which the IC50 in data set [8] is 129 µM (active). As to `COc1ccc(CNc2ncc(-c3ccccc3)n2C)c(OC)c1OC`, the IC50 in [8] is 65.7 µM (active).

As for `Cc1ccc(C)c(S(=O)(=O)N2CCN(C(=O)CCCc3c[nH]c4ccccc34)CC2)c1`, the values for the EC50 in data set [1] and in data set [2] were > 60 µM (not active) and 4.01 µM (active), respectively.

For `COc1ccc(NC2CCCN(C(=O)CCc3scnc3C)C2)cc1` (stereo not drawn), in data set [8], the half-inhibitory concentration (IC50) was 96.1 µM (active).

With `Cc1sc(-n2c(C)cc(/C=C3\SC(=S)NC3=O)c2C)c(C#N)c1C`, the AC50 in data set [3] was 2.5 µM (active). For the compound `COCCNC(=O)C1CCN(S(=O)(=O)N2CCC3(CC2)OCCO3)CC1`, the AC50 in data set [5] (read-out: AC50) was 15.8 µM (inconclusive). For the compound `COc1cc(OC)cc(C(=O)N2CCN(Cc3ccc4c(c3)OCO4)CC2)c1`, the IC50 in [8] is 188 µM (active). Take `COc1cc(CCN2C(=O)c3cccc4cccc(c34)C2=O)c(S(=O)(=O)N2CCCCCC2)cc1OC`: the EC50 was > 30 µM (not active) in data set [1] and 1.9 µM (active) in data set [2].

Regarding `O=C(C1=C(O)C(=O)N(c2cccc(Cl)c2)C1c1ccccc1[N+](=O)[O-])c1ccccc1` (stereo not drawn), in data set [4], the half-maximal activity concentration (AC50) was 12.6 µM (inconclusive). In the case of `CCCSc1nc2sc3c(c2c(=O)n1-c1ccc(OC)cc1)CCN(C)C3`, the results for the EC50 in data set [1] and in [2] were > 30 µM (not active) and 0.12 µM (active), respectively. On to `Oc1ccc(/C=C/c2nc3ccccc3nc2O)cc1`, for which the IC50 in data set [8] is 31.5 µM (active). Take `CCOC(=O)C1C(=O)C=C(c2ccc(NS(C)(=O)=O)cc2)CC1c1ccco1` (stereo not drawn): the AC50 in [4] was 25.1 µM (inconclusive). Turning to `Cc1ccc(/C=N/Nc2cc(C)nc(NCc3ccccc3)n2)cc1`, the AC50 in [3] is 6.45 µM (active).

For the compound `Cc1cnc(CNc2ccnc(-c3ccccc3C)n2)cn1`, the AC50 in [4] is 20 µM (inconclusive). For the compound `O/N=C/c1ccnc(SCc2ccc(Cl)cc2)n1`, the AC50 in data set [3] is 3.58 µM (active).

Values taken from ChEMBL document CHEMBL1201862, “PubChem BioAssay data set” (2004).
